What all share (format): functional, cell-based
In data set [1] the target is T1, Solute carrier family 15 member 1 (Homo sapiens) (UniProt P46059).
T1 sequence (whole entry): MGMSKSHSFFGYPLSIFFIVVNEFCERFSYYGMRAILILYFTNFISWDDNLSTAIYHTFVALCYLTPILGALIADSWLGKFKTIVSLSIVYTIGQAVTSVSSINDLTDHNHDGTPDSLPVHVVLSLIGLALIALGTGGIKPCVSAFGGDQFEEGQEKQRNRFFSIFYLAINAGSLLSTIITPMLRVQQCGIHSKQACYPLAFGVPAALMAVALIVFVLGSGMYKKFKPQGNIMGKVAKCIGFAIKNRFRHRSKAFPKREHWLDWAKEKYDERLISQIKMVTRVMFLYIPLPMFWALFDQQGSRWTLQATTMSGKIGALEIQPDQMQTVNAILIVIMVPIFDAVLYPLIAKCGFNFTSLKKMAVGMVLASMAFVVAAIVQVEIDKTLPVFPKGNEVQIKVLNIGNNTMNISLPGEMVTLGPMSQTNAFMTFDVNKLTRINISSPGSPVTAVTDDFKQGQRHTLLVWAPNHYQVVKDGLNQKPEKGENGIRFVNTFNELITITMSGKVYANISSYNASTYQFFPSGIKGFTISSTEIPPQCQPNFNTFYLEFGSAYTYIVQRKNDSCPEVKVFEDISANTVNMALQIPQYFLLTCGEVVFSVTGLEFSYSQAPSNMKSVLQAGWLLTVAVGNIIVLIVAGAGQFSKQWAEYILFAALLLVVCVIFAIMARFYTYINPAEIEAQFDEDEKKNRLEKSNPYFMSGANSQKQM
Kind of data set: TP_TRANSPORTER: inhibition of VACV uptake (VACV: 20 uM, Leu-Leu: 10000 uM) in PEPT1-expressing CHO cells.

Data set [2] deals with T1, Solute carrier family 15 member 1 (Homo sapiens). The data set is described as follows: TP_TRANSPORTER: inhibition of VACV uptake (VAVC: 20 uM, Ampicillin: 10000 uM) in PEPT1-expressing CHO cells.
Data set [3] shares this target. The data set is described as follows: TP_TRANSPORTER: inhibition of VACV uptake (VACV: 20 uM, Gly-Leu: 10000 uM) in PEPT1-expressing CHO cells.
Data set [4] shares this target. Kind of data set: TP_TRANSPORTER: inhibition of VACV uptake (VACV: 20 uM, Cephalexin: 10000 uM) in PEPT1-expressing CHO cells.
Data set [5] shares this target. The data set is described as follows: TP_TRANSPORTER: inhibition of VACV uptake (VACV: 20 uM, Gly-Gly: 10000 uM) in PEPT1-expressing CHO cells.
The target in data set [6] is T2, Solute carrier family 15 member 1 (Homo sapiens, UniProt P46059).
T2 sequence (P46059 whole entry): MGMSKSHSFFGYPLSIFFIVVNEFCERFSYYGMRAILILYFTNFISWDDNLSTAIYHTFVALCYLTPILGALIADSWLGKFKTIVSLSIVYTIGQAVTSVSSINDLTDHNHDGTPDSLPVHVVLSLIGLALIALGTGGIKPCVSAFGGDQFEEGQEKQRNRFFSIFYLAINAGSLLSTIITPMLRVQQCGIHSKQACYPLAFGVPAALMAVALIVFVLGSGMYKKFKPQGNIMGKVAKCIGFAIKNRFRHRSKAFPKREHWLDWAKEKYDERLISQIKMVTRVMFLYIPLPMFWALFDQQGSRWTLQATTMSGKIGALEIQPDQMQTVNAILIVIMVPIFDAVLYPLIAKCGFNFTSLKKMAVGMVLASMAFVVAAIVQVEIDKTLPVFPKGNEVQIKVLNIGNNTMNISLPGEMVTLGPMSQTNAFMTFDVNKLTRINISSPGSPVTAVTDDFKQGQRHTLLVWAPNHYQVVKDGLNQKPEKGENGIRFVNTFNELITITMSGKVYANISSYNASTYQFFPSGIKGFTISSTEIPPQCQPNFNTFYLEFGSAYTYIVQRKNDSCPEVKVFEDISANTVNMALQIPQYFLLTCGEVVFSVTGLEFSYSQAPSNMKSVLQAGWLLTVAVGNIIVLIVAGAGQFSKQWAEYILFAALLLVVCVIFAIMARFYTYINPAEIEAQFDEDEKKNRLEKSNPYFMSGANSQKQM
The data set is described as follows: TP_TRANSPORTER: inhibition of VACV uptake in PEPT1-expressing CHO cells.

Substrate in data set [7]: CN(CC(=O)O)C(=O)CN
Kind of data set: (§1) TP_TRANSPORTER: uptake in PEPT1-expressing CHO cells.

Substrate in data set [8]: CC(C)[C@H](N)C(=O)OCCOCn1cnc2c(=O)nc(N)[nH]c21
The data set is described as §1.

Where a SMILES comes first, the peptide text is derived from it. [ ]: non-standard residue; d: D form. Sar = CNCC(=O)O

Among the data in ChEMBL document CHEMBL2073905, “Interactions of a nonpeptidic drug, valacyclovir, with the human intestinal peptide transporter (hPEPT1) expressed in a mammalian cell line” (J Pharmacol Exp Ther, 1999) are inhibition, Ki and Km values, retold here.

The term inhibition denotes how much of the control response was suppressed. For `CC(C)C[C@H](NC(=O)[C@@H](N)CC(C)C)C(=O)O`, the inhibition in data set [1] is more than 80%. `CC1(C)S[C@@H]2[C@H](NC(=O)[C@H](N)c3ccccc3)C(=O)N2[C@H]1C(=O)O`: in data set [2], the inhibition is 50%.

In the case of `CC(C)C[C@H](NC(=O)CN)C(=O)O`, in data set [3], the inhibition was more than 80%. As for `CC1=C(C(=O)O)N2C(=O)[C@@H](NC(=O)[C@H](N)c3ccccc3)[C@H]2SC1`, the inhibition in data set [4] was 50%.

With `NCC(=O)NCC(=O)O` (H-Gly-Gly-OH), the inhibition in data set [5] is more than 80%. The term Ki denotes the equilibrium dissociation constant of an inhibitor or competing ligand from its target. Lower therefore signals higher affinity. Consider `CC1=C(C(=O)O)N2C(=O)[C@@H](NC(=O)[C@H](N)c3ccc(O)cc3)[C@H]2SC1` [CEFADROXIL], for which the Ki in data set [6] is 9.1 mM. The same measure, in the same setting: to `CN(CC(=O)O)C(=O)CN` [GLYCYLSARCOSINE] (H-Gly-[Sar]-OH) belongs 12.8 mM.

B1: Solute carrier family 15 member 1 (Homo sapiens), P46059 (protein)
chain: MGMSKSHSFFGYPLSIFFIVVNEFCERFSYYGMRAILILYFTNFISWDDNLSTAIYHTFVALCYLTPILGALIADSWLGKFKTIVSLSIVYTIGQAVTSVSSINDLTDHNHDGTPDSLPVHVVLSLIGLALIALGTGGIKPCVSAFGGDQFEEGQEKQRNRFFSIFYLAINAGSLLSTIITPMLRVQQCGIHSKQACYPLAFGVPAALMAVALIVFVLGSGMYKKFKPQGNIMGKVAKCIGFAIKNRFRHRSKAFPKREHWLDWAKEKYDERLISQIKMVTRVMFLYIPLPMFWALFDQQGSRWTLQATTMSGKIGALEIQPDQMQTVNAILIVIMVPIFDAVLYPLIAKCGFNFTSLKKMAVGMVLASMAFVVAAIVQVEIDKTLPVFPKGNEVQIKVLNIGNNTMNISLPGEMVTLGPMSQTNAFMTFDVNKLTRINISSPGSPVTAVTDDFKQGQRHTLLVWAPNHYQVVKDGLNQKPEKGENGIRFVNTFNELITITMSGKVYANISSYNASTYQFFPSGIKGFTISSTEIPPQCQPNFNTFYLEFGSAYTYIVQRKNDSCPEVKVFEDISANTVNMALQIPQYFLLTCGEVVFSVTGLEFSYSQAPSNMKSVLQAGWLLTVAVGNIIVLIVAGAGQFSKQWAEYILFAALLLVVCVIFAIMARFYTYINPAEIEAQFDEDEKKNRLEKSNPYFMSGANSQKQM
The term Km denotes the substrate concentration at which the rate is half of its maximum. Take B1: the Km in data set [7] stood at 3130 µM; in data set [8], 1640 µM.
